From ChEMBL document CHEMBL1146329, “Structure-activity relationship in the 3-iodo-4-phenoxypyridinone (IOPY) series: The nature of the C-3 substituent on anti-HIV activity” (Bioorg Med Chem Lett, 2007)

Tests used:
[1] = tested on: Human immunodeficiency virus 1; assay: Antiviral activity against HIV1 LAI assessed as inhibition of viral-induced cytopathicity in MT4 cells by MTT method; type: functional, organism-based; details: Human immunodeficiency virus 1, LAI
[2] = tested on: Human immunodeficiency virus 1; assay: Antiviral activity against HIV1 RT 188L mutant assessed as inhibition of viral-induced cytopathicity in MT4 cells by MTT method; type: functional, organism-based; details: Human immunodeficiency virus 1, MT4
[3] = tested on: Human immunodeficiency virus 1; assay: Antiviral activity against HIV1 RT 181C mutant assessed as inhibition of viral-induced cytopathicity in MT4 cells by MTT method; type: functional, organism-based; details: Human immunodeficiency virus 1, MT4
[4] = Selectivity index, ratio of CC50 for MT4 cells to IC50 for HIV1 LAI; type: functional
[5] = tested on: Human immunodeficiency virus 1; assay: Antiviral activity against HIV1 RT 100I mutant assessed as inhibition of viral-induced cytopathicity in MT4 cells by MTT method; type: functional, organism-based; details: Human immunodeficiency virus 1, MT4
[6] = tested on: Human immunodeficiency virus 1; assay: Antiviral activity against HIV1 with RT 103N mutant assessed as inhibition of viral-induced cytopathicity in MT4 cells by MTT method; type: functional, organism-based; details: Human immunodeficiency virus 1, MT4
[7] = tested on: Human immunodeficiency virus 1; assay: Antiviral activity against HIV1 RT 103N/181C mutant assessed as inhibition of viral-induced cytopathicity in MT4 cells by MTT method; type: functional, organism-based; details: Human immunodeficiency virus 1, MT4
[8] = tested on: Human immunodeficiency virus 1; assay: Antiviral activity against HIV1 RT 100I/103N mutant assessed as inhibition of viral-induced cytopathicity in MT4 cells by MTT method; type: functional, organism-based; details: Human immunodeficiency virus 1, MT4

Row | Structure (SMILES) | IC50 [1] [nM] | IC50 [2] [nM] | IC50 [3] [nM] | Ratio CC50/IC50 [4] | IC50 [5] [nM] | IC50 [6] [nM] | IC50 [7] [nM] | IC50 [8] [nM]
1 | CCOC(=O)c1c(Oc2cc(C)cc(C)c2)c(CC)c(C)[nH]c1=O | 631 | – | – | – | – | – | – | –
2 | CCc1c(C)[nH]c(=O)c(CC)c1Oc1cc(C)cc(C)c1 | 3.1 | 63.1 | 39.8 | 3162 | 12.5 | 39.8 | – | –
3 | CCc1c(C)[nH]c(=O)c(OC)c1Oc1cc(C)cc(C)c1 | 2.5 | 794 | 158 | 39811 | 31.6 | 79.4 | 501 | 316
4 | CCc1c(C)[nH]c(=O)c(CO)c1Oc1cc(C)cc(C)c1 | 19.9 | – | – | 5012 | – | – | – | –
5 | CCc1c(C)[nH]c(=O)c(C#N)c1Oc1cc(C)cc(C)c1 | 79.4 | – | – | – | – | – | – | –
6 | O=C1Nc2ccc(Cl)cc2C(C#CC2CC2)(C(F)(F)F)O1 (single isomer, unassigned) [EFAVIRENZ] | – | – | – | – | – | – | – | 1000
7 | CCSc1c(Oc2cc(C)cc(C)c2)c(CC)c(C)[nH]c1=O | 125 | – | – | – | – | – | – | –
8 | C=Cc1c(Oc2cc(C)cc(C)c2)c(CC)c(C)[nH]c1=O | 3.1 | 12.5 | 19.9 | 6309 | 6.3 | 3.1 | 200 | –
9 | CCc1c(C)[nH]c(=O)c(/C=N/O)c1Oc1cc(C)cc(C)c1 | 31.6 | – | – | – | – | – | – | –
10 | CCc1c(C)[nH]c(=O)c(C(F)(F)F)c1Oc1cc(C)cc(C)c1 | 3.1 | 199 | 50.1 | 12589 | 31.6 | 12.5 | – | –
11 | CCc1c(C)[nH]c(=O)c(Br)c1Oc1cc(C)cc(C)c1 | 1.99 | 631 | 63.1 | 90119 | – | 39.8 | 158 | 63.1
12 | CCc1c(C)[nH]c(=O)c(SCCC(N)=O)c1Oc1cc(C)cc(C)c1 | 12.5 | 2510 | 794 | 1995 | 158 | 316 | – | –
13 | CCOC(=O)/C=C/c1c(Oc2cc(C)cc(C)c2)c(CC)c(C)[nH]c1=O | 6310 | – | – | – | – | – | – | –
14 | CCc1c(C)[nH]c(=O)c(C#Cc2ccccc2)c1Oc1cc(C)cc(C)c1 | 15800 | – | – | – | – | – | – | –
15 | CCc1c(C)[nH]c(=O)c(SC)c1Oc1cc(C)cc(C)c1 | 1.99 | 125 | 31.6 | 25119 | 19.9 | 31.6 | 31.6 | 63.1
16 | CCc1c(C)[nH]c(=O)c(/C=C/I)c1Oc1cc(C)cc(C)c1 | 100 | – | – | – | – | – | – | –
17 | CCc1c(C)[nH]c(=O)c(C2CC2)c1Oc1cc(C)cc(C)c1 | 6.3 | 158 | 158 | 1259 | 39.8 | 199 | – | –
18 | CCc1c(C)[nH]c(=O)c(C(=O)N(C)C)c1Oc1cc(C)cc(C)c1 | 5020 | – | – | – | – | – | – | –
19 | CCc1c(C)[nH]c(=O)c(Sc2ccccc2)c1Oc1cc(C)cc(C)c1 | 10 | 794 | 158 | 5012 | 125 | 794 | 1580 | 1580
20 | CCc1c(C)[nH]c(=O)c([S+](C)[O-])c1Oc1cc(C)cc(C)c1 (stereo unspecified) | 15.8 | – | – | 6309 | – | – | – | –
21 | CCc1c(C)[nH]c(=O)c(/C=C/CO)c1Oc1cc(C)cc(C)c1 | 63.1 | – | – | – | – | – | – | –
22 | C/C=C/c1c(Oc2cc(C)cc(C)c2)c(CC)c(C)[nH]c1=O | 39.8 | – | – | – | – | – | – | –
23 | CCc1c(C)[nH]c(=O)c(Cl)c1Oc1cc(C)cc(C)c1 | 6.3 | 398 | 100 | 10000 | 31.6 | 19.9 | – | –
24 | CCc1c(C)[nH]c(=O)c(I)c1Oc1cc(C)cc(C)c1 | 1.25 | 50.1 | 19.9 | 9000 | 6.31 | 3.16 | 39.8 | 19.9
25 | CCc1c(C)[nH]c(=O)c(C(C)C)c1Oc1cc(C)cc(C)c1 | 19.9 | 31.6 | 39.8 | 5012 | 12.5 | 39.8 | – | –
26 | CCc1c(Oc2cc(C)cc(C)c2)cc(=O)[nH]c1C | 398 | – | – | – | – | – | – | –
27 | CCc1c(C)[nH]c(=O)c(-c2ccsc2)c1Oc1cc(C)cc(C)c1 | 50.1 | – | – | – | – | – | – | –
28 | CCc1c(C)[nH]c(=O)c(-c2ccco2)c1Oc1cc(C)cc(C)c1 | 15.8 | – | – | 126 | – | – | – | –
